Molecular target: JAK2 (Homo sapiens, UniProt O60674)
Assay: JAK2 EPO-TF1/pSTAT5 cell-based assay (Cellomics ArrayScan HCS)
Set-up: endogenous in cells; host or cells: TF-1 (human erythroid leukemia) cells
Conditions: TF-1 cells, EPO at 1.6 U/mL, relative IC50, n=65; read-out: IC50, inhibits JAK2 (pSTAT5)
From the text: The JAK2 EPO-TF1/pSTAT5 cell-based assay mimics the constitutive activation of JAK2-STAT5 in erythroid progenitor cells, which drives the overproduction of red blood cells, a marker of polycythemia vera (PV). Therefore, the EPO-TF1/pSTAT5 cell-based assay enables the evaluation of the JAK2 cellular activity of JAK compounds in vitro.
TF-1 (human erythroid leukemia) cells are maintained in RPMI 1640 (RPMI-1640 was developed by Moore et. al. at Roswell Park Memorial Institute. The formulation is based on the RPMI-1630 series of media utilizing a bicarbonate buffering system and alterations in the amounts of amino acids and vitamins.) with 10% fetal bovine serum (FBS), 0.075% sodium bicarbonate, 1 mM sodium pyruvate, 1× antibiotic/antimycotic (Invitrogen, Carlsbad, Calif.) and 0.45% glucose. The medium is supplemented with GM-CSF (granulocyte-macrophage colony-stimulating factor) at a final concentration of 2 ng/mL. Cells are kept at 37° C. with 5% CO2. […] TF-1 cells are counted and cells are collected to seed 2×10^7 cells per 96-well plate at a density of 2×10^5 cells per well. […]
To perform the assay, serum-starved cells are collected and washed once with unsupplemented RPMI 1640 medium. […] An aliquot of 200 μL of 1 to 10 dilution of Mouse anti-pSTAT5 (pY694) Alexa Fluor 647® in fluorescence activated cell sorting (FACS) buffer is added to the cells. […]

Chain of JAK2 (O60674 whole entry): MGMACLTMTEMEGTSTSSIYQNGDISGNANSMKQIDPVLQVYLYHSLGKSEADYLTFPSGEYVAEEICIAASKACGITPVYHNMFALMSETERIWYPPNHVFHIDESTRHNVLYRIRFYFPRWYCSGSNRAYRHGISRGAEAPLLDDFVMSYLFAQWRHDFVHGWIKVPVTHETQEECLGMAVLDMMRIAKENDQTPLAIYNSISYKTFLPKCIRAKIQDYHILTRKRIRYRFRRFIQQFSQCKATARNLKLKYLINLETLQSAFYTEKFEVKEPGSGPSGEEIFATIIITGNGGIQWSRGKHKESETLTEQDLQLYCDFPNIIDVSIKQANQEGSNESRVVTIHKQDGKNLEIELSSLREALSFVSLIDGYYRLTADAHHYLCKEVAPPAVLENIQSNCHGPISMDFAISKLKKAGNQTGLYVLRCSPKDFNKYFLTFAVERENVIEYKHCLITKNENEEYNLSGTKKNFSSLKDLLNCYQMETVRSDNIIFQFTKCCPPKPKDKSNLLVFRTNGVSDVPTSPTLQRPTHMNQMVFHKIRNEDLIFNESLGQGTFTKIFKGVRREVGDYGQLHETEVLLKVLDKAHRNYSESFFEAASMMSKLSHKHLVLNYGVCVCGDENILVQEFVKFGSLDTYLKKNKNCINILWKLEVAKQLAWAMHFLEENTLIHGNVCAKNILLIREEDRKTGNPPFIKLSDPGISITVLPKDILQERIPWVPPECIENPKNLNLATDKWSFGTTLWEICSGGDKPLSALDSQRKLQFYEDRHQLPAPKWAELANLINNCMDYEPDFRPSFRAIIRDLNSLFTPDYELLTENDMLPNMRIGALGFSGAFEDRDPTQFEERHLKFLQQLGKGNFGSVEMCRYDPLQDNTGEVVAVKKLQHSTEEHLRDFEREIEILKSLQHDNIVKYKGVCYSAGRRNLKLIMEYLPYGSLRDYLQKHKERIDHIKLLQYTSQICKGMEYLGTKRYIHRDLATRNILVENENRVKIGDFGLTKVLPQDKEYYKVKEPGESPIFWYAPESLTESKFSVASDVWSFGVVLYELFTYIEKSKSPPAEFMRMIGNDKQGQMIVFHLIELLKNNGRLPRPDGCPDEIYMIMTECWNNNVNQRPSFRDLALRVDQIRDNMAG

`Cc1cc(Nc2ccc3ncn([C@@H]4CCc5ccc(F)cc54)c3n2)[nH]n1.Cl.Cl` [Example 1, 3-[(1R)-6-fluoro-2,3-dihydro-1H-inden-1-yl]-N-(3-methyl-1H-pyrazol-5-yl)-3H-imidazo[4,5-b]pyridin-5-amine dihydrochloride] gave an IC50 of 35 nM.

From patent US9062050B2, “Inhibitor of JAK1 and JAK2” (Eli Lilly and Company, priority 2012, dated 2015)
